{
  "source": "BindingDB's records for patent US20230348371",
  "about": "(Shanghai Senhui Medicine, 2023)",
  "molecular_target": "ATP-binding cassette sub-family C member 8 (Homo sapiens, UniProt Q09428)",
  "sequence (Q09428 whole entry)": "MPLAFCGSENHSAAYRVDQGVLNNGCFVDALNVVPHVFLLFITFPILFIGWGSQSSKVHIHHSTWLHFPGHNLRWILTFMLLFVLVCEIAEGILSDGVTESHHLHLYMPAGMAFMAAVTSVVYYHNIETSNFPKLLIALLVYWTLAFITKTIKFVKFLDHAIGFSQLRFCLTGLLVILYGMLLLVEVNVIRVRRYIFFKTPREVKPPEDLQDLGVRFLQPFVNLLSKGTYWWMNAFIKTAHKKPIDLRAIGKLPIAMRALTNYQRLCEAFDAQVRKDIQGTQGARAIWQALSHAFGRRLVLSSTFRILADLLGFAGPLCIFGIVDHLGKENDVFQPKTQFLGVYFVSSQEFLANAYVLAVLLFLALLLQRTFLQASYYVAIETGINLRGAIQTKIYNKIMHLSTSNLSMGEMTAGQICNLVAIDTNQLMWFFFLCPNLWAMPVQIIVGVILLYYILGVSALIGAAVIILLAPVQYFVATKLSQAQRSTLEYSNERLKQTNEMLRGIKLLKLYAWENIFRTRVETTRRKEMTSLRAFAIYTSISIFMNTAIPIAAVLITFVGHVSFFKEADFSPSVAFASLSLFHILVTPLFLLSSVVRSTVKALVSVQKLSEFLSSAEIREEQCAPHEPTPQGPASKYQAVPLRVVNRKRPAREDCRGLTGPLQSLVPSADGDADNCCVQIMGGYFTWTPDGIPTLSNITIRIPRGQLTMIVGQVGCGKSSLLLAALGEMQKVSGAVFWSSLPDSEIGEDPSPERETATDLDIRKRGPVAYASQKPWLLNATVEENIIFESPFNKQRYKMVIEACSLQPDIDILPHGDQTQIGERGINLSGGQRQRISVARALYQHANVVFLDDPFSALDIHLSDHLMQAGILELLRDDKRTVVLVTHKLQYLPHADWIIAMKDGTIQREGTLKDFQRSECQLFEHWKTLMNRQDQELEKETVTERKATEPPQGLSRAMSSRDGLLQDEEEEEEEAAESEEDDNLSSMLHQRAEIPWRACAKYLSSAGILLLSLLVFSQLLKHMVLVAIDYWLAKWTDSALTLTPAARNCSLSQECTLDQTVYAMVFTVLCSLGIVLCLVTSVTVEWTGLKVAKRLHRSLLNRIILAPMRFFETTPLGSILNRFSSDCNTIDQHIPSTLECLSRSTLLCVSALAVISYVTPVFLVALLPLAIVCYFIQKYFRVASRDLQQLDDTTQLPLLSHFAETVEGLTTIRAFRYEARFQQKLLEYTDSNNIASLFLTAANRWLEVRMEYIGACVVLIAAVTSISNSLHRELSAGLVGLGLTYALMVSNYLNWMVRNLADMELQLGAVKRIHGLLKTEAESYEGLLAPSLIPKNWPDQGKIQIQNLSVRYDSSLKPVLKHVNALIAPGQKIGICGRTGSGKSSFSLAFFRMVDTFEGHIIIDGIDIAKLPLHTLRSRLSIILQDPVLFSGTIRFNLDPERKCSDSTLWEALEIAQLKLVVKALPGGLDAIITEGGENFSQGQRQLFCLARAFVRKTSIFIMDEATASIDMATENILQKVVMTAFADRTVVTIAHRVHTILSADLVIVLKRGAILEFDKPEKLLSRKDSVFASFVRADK",
  "test": "Binding Activity of the Compounds of the Present Disclosure for SUR1 Receptor",
  "experimental": "The plate was incubated at 4° C. for 1 h.f) The […]-96 GF/C and […]-96 GF/B plates were washed twice with Universal Harvester, each time with 50 mL of washing solution.g) The SUR1 receptor reaction system was transferred to a […]-96 GF/B plate with Universal Harvester, and 900 μL of washing solution was added to each well to wash the GF/B plate 4 times. The washed […]-96 GF/B plate was dried in an oven at 55° C. for 10 min.h) 40 μL of ULTIMA GOLD scintillation solution was added to each well, and the plate was read using Microbeta.",
  "data": [
    {"smiles": "COc1ccc(Cl)cc1C(=O)NCCc1ccc(S(=O)(=O)NC(=O)N[C@H]2CC[C@H](O)CC2)cc1", "note": "[US20230348371, Compound 4]", "values": [
      {"measurement": "IC50", "result": 8, "unit": "nM"}
    ]}
  ]
}
